Structures are written as SMILES.

In test [1] the target is T1, Galectin-1 (Homo sapiens, UniProt P09382). The test can be described thus: Potency index, ratio of test compound IC50 to (2S,3R,4S,5R,6R)-2-(((2R,3S,4R,5R,6R)-4,5 dihydroxy-2-(hydroxymethyl)-6 methoxytetrahydro-2H-pyran-3-yl)oxy)-6(hydroxymethyl)tetrahydro-2H-pyran-3,4,5-triol IC50 for inhibition of asialofetuin binding to human recombinant Gal-1 transfected in Escherichia coli BL21 (DE3) incubated for 2 hrs by competitive solid-phase assay.

Test [2] deals with T1, Galectin-1. In words: Inhibition of asialofetuin binding to human recombinant Gal-1 transfected in Escherichia coli BL21 (DE3) incubated for 2 hrs by competitive solid-phase assay.
For test [3], the target named is T1, Galectin-1. In words: Binding affinity to human recombinant Gal-1 assessed as change in entropy by ITC analysis. Background: In ITC the heat of successive injections is recorded.
For test [4], the target named is T1, Galectin-1. The test can be described thus: Binding affinity to human recombinant Gal-1 assessed as change in enthalpy by ITC analysis.
Test [5] concerns the target T1, Galectin-1. In words: Binding affinity to human recombinant Gal-1 assessed as association constant by ITC analysis.
Test [6] has as its target T1, Galectin-1. The test can be described thus: Binding affinity to human recombinant Gal-1 assessed as dissociation constant by ITC analysis.
Test [7] addresses T1, Galectin-1. In words: Binding affinity to human recombinant Gal-1 assessed as gibbs free energy change by ITC analysis.

T1 sequence (P09382 whole entry): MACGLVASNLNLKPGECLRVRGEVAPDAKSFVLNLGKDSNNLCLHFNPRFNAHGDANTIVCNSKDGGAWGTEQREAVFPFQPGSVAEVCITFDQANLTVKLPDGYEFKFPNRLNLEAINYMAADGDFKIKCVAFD

Take `COc1cc(CCC(=O)O)ccc1O[C@@H]1O[C@H](CO)[C@@H](O[C@@H]2O[C@H](CO)[C@H](O)[C@H](O)[C@H]2O)[C@H](O)[C@H]1O`: the Ratio IC50 at Galectin-1 [1] was determined as 0.56. Moreover, the IC50 at Galectin-1 [2] is 4.1 mM.

Turning to `OC[C@H]1O[C@@H](O[C@H]2[C@H](O)[C@@H](O)C(O)O[C@@H]2CO)[C@H](O)[C@@H](O)[C@H]1O` (stereo not given in full), on Galectin-1 [3], the deltaS is -28 J/mol.K. Moreover, the deltaH at Galectin-1 [4] is -6.79 kcal/mol. Besides, the Ka at Galectin-1 [5] is 3.2 10^3/M.

With `O=[N+]([O-])c1ccc(O[C@@H]2O[C@H](CO)[C@@H](O[C@@H]3O[C@H](CO)[C@H](O)[C@H](OS(=O)(=O)O)[C@H]3O)[C@H](O)[C@H]2O)cc1`, the Ratio IC50 on Galectin-1 [1] was determined as 0.79. In addition, the IC50 at Galectin-1 [2] is 5.9 mM.

Turning to `C#CCO[C@@H]1O[C@H](CO)[C@@H](O[C@@H]2O[C@H](CO)[C@H](O)[C@H](O)[C@H]2O)[C@H](O)[C@H]1O`, the Ratio IC50 at Galectin-1 [1] was 0.83. The half-inhibitory concentration (IC50) on Galectin-1 [2] worked out at 6.1 mM.

For the compound `COc1cc(C(=O)OC(C)(C)C)ccc1O[C@@H]1O[C@H](CO)[C@@H](O[C@@H]2O[C@H](CO)[C@H](O)[C@H](OS(=O)(=O)O)[C@H]2O)[C@H](O)[C@H]1O`, the Kd at Galectin-1 [6] came out at 0.117 mM. Further, at Galectin-1 [1], the Ratio IC50 stood at 0.43. Moreover, at Galectin-1 [7], the deltaG was -5.38 kcal/mol. In addition, the deltaS on Galectin-1 [3] was -21.3 J/mol.K. Moreover, on Galectin-1 [4], the deltaH was -6.93 kcal/mol. Further, the IC50 at Galectin-1 [2] came out at 3.2 mM. In addition, on Galectin-1 [5], the Ka was 8.6 10^3/M.

For `COc1cc(C=O)ccc1O[C@@H]1O[C@H](CO)[C@@H](O[C@@H]2O[C@H](CO)[C@H](O)[C@H](OS(=O)(=O)O)[C@H]2O)[C@H](O)[C@H]1O`, the Ratio IC50 at Galectin-1 [1] stood at 0.82. Further, the IC50 at Galectin-1 [2] was 6.1 mM.

On to `COC(=O)c1ccc(O[C@@H]2O[C@H](CO)[C@@H](O[C@@H]3O[C@H](CO)[C@H](O)[C@H](O)[C@H]3O)[C@H](O)[C@H]2O)c(OC)c1`, for which, on Galectin-1 [1], the Ratio IC50 is 1.02. On Galectin-1 [2], the IC50 was found to be 7.5 mM.

Regarding `COc1cc(C(=O)OC(C)(C)C)ccc1O[C@@H]1O[C@H](CO)[C@@H](O[C@@H]2O[C@H](CO)[C@H](O)[C@H](O)[C@H]2O)[C@H](O)[C@H]1O`, the Kd at Galectin-1 [6] was found to be 0.206 mM. The Ratio IC50 at Galectin-1 [1] was 0.48. The deltaG on Galectin-1 [7] was -5.02 kcal/mol. Besides, the deltaS at Galectin-1 [3] is -23.1 J/mol.K. In addition, the deltaH on Galectin-1 [4] is -6.67 kcal/mol. For the same compound, on Galectin-1 [2], the IC50 is 3.6 mM. Moreover, the Ka on Galectin-1 [5] is 4.9 10^3/M.

In the case of `C#CCO[C@@H]1O[C@H](CO)[C@@H](O[C@@H]2O[C@H](CO)[C@H](O)[C@H](O)[C@H]2O)[C@H](O)[C@H]1NC(C)=O`, on Galectin-1 [1], the Ratio IC50 worked out at 1.45. Besides, the IC50 on Galectin-1 [2] is 10.7 mM.

As for `COc1cc(/C=C/C(=O)O)ccc1O[C@@H]1O[C@H](CO)[C@@H](O[C@@H]2O[C@H](CO)[C@H](O)[C@H](O)[C@H]2O)[C@H](O)[C@H]1O`, the Ratio IC50 at Galectin-1 [1] worked out at 0.65. The IC50 at Galectin-1 [2] turned out to be 4.8 mM.

For `COc1cc(C(=O)O)ccc1O[C@@H]1O[C@H](CO)[C@@H](O[C@@H]2O[C@H](CO)[C@H](O)[C@H](OS(=O)(=O)O)[C@H]2O)[C@H](O)[C@H]1O`, the Kd at Galectin-1 [6] was determined as 0.284 mM. Further, the Ratio IC50 at Galectin-1 [1] was determined as 0.53. Moreover, the deltaG at Galectin-1 [7] was -4.83 kcal/mol. The deltaS at Galectin-1 [3] was -6.2 J/mol.K. Also, on Galectin-1 [4], the deltaH is -5.28 kcal/mol. For the same compound, the half-inhibitory concentration (IC50) on Galectin-1 [2] was 3.9 mM. Also, the Ka at Galectin-1 [5] is 3.5 10^3/M.

With `CC(=O)N[C@H]1C(O)O[C@H](CO)[C@@H](O[C@@H]2O[C@H](CO)[C@H](O)[C@H](O)[C@H]2O)[C@@H]1O` (stereo not given in full), the Ratio IC50 on Galectin-1 [1] was found to be 1.02. Besides, the IC50 at Galectin-1 [2] worked out at 7.5 mM.

`O=[N+]([O-])c1ccc(O[C@@H]2O[C@H](CO)[C@@H](O[C@@H]3O[C@H](CO)[C@H](O)[C@H](O)[C@H]3O)[C@H](O)[C@H]2O)cc1`: the Ratio IC50 at Galectin-1 [1] is 0.89. For the same compound, at Galectin-1 [2], the IC50 was 6.6 mM.

As to `CO[C@@H]1O[C@H](CO)[C@@H](O[C@@H]2O[C@H](CO)[C@H](O)[C@H](O)[C@H]2O)[C@H](O)[C@H]1O`, the half-maximal inhibitory concentration (IC50) at Galectin-1 [2] was determined as 7.4 mM.

For `COc1cc(CO)ccc1O[C@@H]1O[C@H](CO)[C@@H](O[C@@H]2O[C@H](CO)[C@H](O)[C@H](O)[C@H]2O)[C@H](O)[C@H]1O`, at Galectin-1 [1], the Ratio IC50 came to 1.46. Besides, the concentration for half-maximal inhibition (IC50) on Galectin-1 [2] was 10.8 mM.

As to `C#CCO[C@@H]1O[C@H](CO)[C@@H](O[C@@H]2O[C@H](CO)[C@H](O)[C@H](OS(=O)(=O)O)[C@H]2O)[C@H](O)[C@H]1NC(C)=O`, the Ratio IC50 on Galectin-1 [1] is 0.65. For the same compound, at Galectin-1 [2], the IC50 stood at 4.8 mM.

As for `CC(=O)N[C@H]1[C@H](Oc2ccc([N+](=O)[O-])cc2)O[C@H](CO)[C@@H](O[C@@H]2O[C@H](CO)[C@H](O)[C@H](O)[C@H]2O)[C@@H]1O`, the Ratio IC50 at Galectin-1 [1] was 0.78. On Galectin-1 [2], the half-inhibitory concentration (IC50) was found to be 5.7 mM.

In the case of `CC(=O)N[C@H]1[C@H](Oc2ccc([N+](=O)[O-])cc2)O[C@H](CO)[C@@H](O[C@@H]2O[C@H](CO)[C@H](O)[C@H](OS(=O)(=O)O)[C@H]2O)[C@@H]1O`, the Ratio IC50 at Galectin-1 [1] is 0.83. Further, the concentration for half-maximal inhibition (IC50) on Galectin-1 [2] is 6.1 mM.

Take `C#CCO[C@@H]1O[C@H](CO)[C@@H](O[C@@H]2O[C@H](CO)[C@H](O)[C@H](OCC(=O)O)[C@H]2O)[C@H](O)[C@H]1NC(C)=O`: the Ratio IC50 at Galectin-1 [1] is 0.99. Also, the IC50 at Galectin-1 [2] was 7.3 mM.

Regarding `C#CCO[C@@H]1O[C@H](CO)[C@@H](O[C@@H]2O[C@H](CO)[C@H](O)[C@H](O[C@]3(C(=O)O)C[C@H](O)[C@@H](NC(C)=O)[C@H]([C@@H](O)[C@H](O)CO)O3)[C@H]2O)[C@H](O)[C@H]1NC(C)=O`, the Ratio IC50 at Galectin-1 [1] worked out at 1.31. For the same compound, the IC50 on Galectin-1 [2] amounted to 9.7 mM.

As a reminder, the IC50 is the point on the concentration scale where inhibition reaches its midpoint. For orientation: Kd means the equilibrium constant for the complex coming apart.

These data come from ChEMBL document CHEMBL5365539, “Selective modifications of lactose and N-acetyllactosamine with sulfate and aromatic bulky groups unveil unique structural insights in galectin-1-ligand recognition” (Bioorg Med Chem, 2023).
